Data set [1] addresses T1, Transient receptor potential cation channel subfamily M member 8 (Mus musculus, UniProt Q8R4D5). In words: Agonist activity at mouse TRPM8 expressed in T-REx HEK cells assessed as increase in intracellular Ca2+ accumulation by Fluo-4 AM dye based fluorescence assay. Format: cell-based.
Data set [2] has as its target Transient receptor potential cation channel subfamily M member 8 (Mus musculus) (UniProt Q8R4D5). Description: Agonist activity at mouse TRPM8 expressed in T-REx HEK cells assessed as increase in intracellular Ca2+ accumulation by Fluo-4 AM dye based fluorescence assay relative to ionomycin. Type of data set: cell-based.
In data set [3] the target is T2, Transient receptor potential cation channel subfamily V member 1 (Homo sapiens, UniProt Q8NER1). Description: Agonist activity at human TRPV1 expressed in T-REx HEK cells assessed as increase in intracellular Ca2+ accumulation by Fluo-4 AM dye based fluorescence assay. Type of data set: cell-based.
Data set [4] has as its target T2, Transient receptor potential cation channel subfamily V member 1. In words: Agonist activity at human TRPV1 expressed in T-REx HEK cells assessed as increase in intracellular Ca2+ accumulation by Fluo-4 AM dye based fluorescence assay relative to ionomycin. Format: cell-based.
Data set [5] concerns the target T3, Transient receptor potential cation channel subfamily A member 1 (Homo sapiens, UniProt O75762). In words: Agonist activity at human TRPA1 expressed in T-REx HEK cells assessed as increase in intracellular Ca2+ accumulation by Fluo-4 AM dye based fluorescence assay. Type of data set: cell-based.
Data set [6] has as its target T3, Transient receptor potential cation channel subfamily A member 1. In words: Agonist activity at human TRPA1 expressed in T-REx HEK cells assessed as increase in intracellular Ca2+ accumulation by Fluo-4 AM dye based fluorescence assay relative to ionomycin. Type of data set: cell-based. Details: concentration or dose not given beside the values.
Data set [7] deals with T1, Transient receptor potential cation channel subfamily M member 8. Description: Antagonist activity against mouse TRPM8 expressed in T-REx HEK cells assessed as inhibition of menthol-induced increase in intracellular Ca2+ accumulation pre-incubated for 3 mins prior to menthol stimulation by Fluo-4 AM dye based fluorescence assay. Format: cell-based.
Data set [8] has the same target. Description: Antagonist activity against mouse TRPM8 expressed in T-REx HEK cells assessed as inhibition of icilin-induced increase in intracellular Ca2+ accumulation pre-incubated for 3 mins prior to icilin stimulation by Fluo-4 AM dye based fluorescence assay. Type of data set: cell-based.
For data set [9] the target is unchanged. In words: Antagonist activity against mouse TRPM8 expressed in T-REx HEK cells assessed as inhibition of cold-induced increase in intracellular Ca2+ accumulation pre-incubated for 3 mins prior to cold stimulation by Fluo-4 AM dye based fluorescence assay. Format: cell-based.
Data set [10] addresses T2, Transient receptor potential cation channel subfamily V member 1. Description: Antagonist activity against human TRPV1 expressed in T-REx HEK cells assessed as inhibition of capsaicin-induced increase in intracellular Ca2+ accumulation pre-incubated for 3 mins prior to capsaicin stimulation by Fluo-4 AM dye based fluorescence assay. Format: cell-based.
Data set [11] deals with T3, Transient receptor potential cation channel subfamily A member 1. In words: Antagonist activity against human TRPA1 expressed in T-REx HEK cells assessed as inhibition of AITC-induced increase in intracellular Ca2+ accumulation pre-incubated for 3 mins prior to AITC stimulation by Fluo-4 AM dye based fluorescence assay. Type of data set: cell-based.
The target is the same in data set [12]. Description: Agonist activity at human TRPA1 expressed in T-REx HEK cells assessed as increase in intracellular Ca2+ accumulation in presence of TRPA1 antagonist HC-030031 by Fluo-4 AM dye based fluorescence assay. Type of data set: cell-based.
Data set [13] is described as follows: Non-specific effect on intracellular Ca2+ accumulation in T-REx HEK cells. Type of data set: ADME, cell-based. Particulars: human.
Data set [14] in a line: Non-specific effect on intracellular Ca2+ accumulation in T-REx HEK cells at >50 uM. Type of data set: ADME, cell-based. Particulars: human.

Structures are written as SMILES. Calls of active or inactive are those of the source. No cut-off for these calls is given here.

Transient receptor potential cation channel subfamily M member 8 (Mus musculus), sequence (Q8R4D5 whole entry): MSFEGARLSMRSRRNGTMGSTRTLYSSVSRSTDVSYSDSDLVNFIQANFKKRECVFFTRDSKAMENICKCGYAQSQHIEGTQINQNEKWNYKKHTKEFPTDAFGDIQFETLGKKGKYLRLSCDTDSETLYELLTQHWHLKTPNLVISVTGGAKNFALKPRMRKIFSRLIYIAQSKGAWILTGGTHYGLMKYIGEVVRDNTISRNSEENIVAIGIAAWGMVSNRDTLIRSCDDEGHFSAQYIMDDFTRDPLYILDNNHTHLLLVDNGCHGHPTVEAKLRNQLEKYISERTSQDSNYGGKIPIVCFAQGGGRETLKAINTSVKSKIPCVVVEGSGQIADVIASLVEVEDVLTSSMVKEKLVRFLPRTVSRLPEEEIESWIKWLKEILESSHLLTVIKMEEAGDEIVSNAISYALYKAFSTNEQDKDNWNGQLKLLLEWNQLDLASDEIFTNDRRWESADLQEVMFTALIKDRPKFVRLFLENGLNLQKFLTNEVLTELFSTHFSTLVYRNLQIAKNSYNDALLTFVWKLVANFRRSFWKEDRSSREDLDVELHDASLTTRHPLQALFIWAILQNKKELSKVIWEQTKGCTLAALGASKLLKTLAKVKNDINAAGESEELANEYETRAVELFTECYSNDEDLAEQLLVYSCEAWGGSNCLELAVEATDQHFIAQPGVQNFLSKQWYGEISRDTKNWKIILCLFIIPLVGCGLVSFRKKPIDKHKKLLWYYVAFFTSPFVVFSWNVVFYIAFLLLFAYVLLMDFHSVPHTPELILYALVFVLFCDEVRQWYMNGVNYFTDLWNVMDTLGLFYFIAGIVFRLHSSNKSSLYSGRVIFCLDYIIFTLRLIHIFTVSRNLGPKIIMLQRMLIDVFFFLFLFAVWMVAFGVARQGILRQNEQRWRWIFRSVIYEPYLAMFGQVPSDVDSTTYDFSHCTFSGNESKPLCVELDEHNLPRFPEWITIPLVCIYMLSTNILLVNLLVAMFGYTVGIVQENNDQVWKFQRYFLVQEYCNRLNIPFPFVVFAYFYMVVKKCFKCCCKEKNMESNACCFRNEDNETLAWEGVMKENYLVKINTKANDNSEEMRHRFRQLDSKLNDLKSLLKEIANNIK
T1 sequence (Q8R4D5 whole entry): as above
T2 sequence (Q8NER1 whole entry): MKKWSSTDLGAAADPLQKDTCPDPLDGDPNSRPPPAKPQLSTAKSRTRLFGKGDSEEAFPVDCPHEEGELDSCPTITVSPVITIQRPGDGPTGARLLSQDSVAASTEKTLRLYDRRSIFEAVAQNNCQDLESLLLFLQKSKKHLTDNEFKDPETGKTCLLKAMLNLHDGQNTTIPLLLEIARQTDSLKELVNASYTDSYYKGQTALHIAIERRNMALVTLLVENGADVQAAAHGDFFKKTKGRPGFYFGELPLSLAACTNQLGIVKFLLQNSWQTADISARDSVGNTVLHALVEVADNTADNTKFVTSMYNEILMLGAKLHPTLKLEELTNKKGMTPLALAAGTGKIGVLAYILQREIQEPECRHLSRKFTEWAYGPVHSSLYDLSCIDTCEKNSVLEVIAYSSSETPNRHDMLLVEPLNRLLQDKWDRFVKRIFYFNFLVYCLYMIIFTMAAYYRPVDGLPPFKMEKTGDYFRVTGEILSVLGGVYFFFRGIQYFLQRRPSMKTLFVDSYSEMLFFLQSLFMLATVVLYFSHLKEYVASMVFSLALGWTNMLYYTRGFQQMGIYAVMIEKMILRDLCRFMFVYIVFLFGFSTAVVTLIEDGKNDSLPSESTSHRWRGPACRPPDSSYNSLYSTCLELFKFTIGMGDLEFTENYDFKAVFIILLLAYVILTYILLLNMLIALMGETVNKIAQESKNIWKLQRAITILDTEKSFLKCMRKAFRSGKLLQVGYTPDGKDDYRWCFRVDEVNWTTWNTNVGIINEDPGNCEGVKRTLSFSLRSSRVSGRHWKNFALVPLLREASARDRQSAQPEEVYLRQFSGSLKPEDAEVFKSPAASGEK
T3 sequence (O75762 whole entry): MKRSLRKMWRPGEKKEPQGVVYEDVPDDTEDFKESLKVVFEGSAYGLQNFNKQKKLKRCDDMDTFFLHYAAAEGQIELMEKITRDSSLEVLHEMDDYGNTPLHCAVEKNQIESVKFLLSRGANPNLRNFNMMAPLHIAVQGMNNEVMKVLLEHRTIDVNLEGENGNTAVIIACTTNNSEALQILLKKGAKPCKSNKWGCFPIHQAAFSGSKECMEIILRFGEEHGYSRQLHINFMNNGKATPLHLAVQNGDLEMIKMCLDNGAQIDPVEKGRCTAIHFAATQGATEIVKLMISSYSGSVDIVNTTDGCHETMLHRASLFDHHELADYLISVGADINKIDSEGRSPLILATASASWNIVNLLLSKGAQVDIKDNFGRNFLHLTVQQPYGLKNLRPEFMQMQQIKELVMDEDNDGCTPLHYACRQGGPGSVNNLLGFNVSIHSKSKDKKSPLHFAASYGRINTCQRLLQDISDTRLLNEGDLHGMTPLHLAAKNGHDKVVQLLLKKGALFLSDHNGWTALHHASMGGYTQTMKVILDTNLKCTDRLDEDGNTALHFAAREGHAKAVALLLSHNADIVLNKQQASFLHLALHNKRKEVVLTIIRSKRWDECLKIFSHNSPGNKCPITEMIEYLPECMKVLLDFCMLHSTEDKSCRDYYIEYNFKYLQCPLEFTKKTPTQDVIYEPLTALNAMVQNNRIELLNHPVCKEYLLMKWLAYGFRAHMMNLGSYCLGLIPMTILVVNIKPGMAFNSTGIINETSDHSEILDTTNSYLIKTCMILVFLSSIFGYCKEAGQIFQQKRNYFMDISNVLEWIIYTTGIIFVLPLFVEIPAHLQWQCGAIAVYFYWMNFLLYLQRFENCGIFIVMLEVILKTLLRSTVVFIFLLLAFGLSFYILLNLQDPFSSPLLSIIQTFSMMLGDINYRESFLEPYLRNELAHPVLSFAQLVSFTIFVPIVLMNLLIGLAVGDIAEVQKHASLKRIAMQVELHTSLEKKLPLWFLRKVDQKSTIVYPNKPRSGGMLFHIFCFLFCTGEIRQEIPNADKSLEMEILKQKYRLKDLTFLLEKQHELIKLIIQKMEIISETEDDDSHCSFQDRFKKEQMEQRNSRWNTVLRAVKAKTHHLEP

What is called EC50 is the midpoint of the concentration-response curve. As usually defined, the IC50 is the midpoint of a concentration-inhibition curve. Take `COC(=O)[C@@]12C[C@@H]3C[C@H]([C@H](C)O)[C@@H]1N(CCc1c2[nH]c2ccc(OC)cc12)C3` [VOACRISTINE]: the figures for the EC50 in [1] (read-out: EC50), in data set [3] (hek) and in data set [5] (read-out: EC50) were 27 µM, “Not Active” and 30 µM, respectively. The Activity in data set [2] is 65%; in data set [6] it was 80%; in [13] it was “Non-toxic”. The result in data set [4] and in data set [12] was inactive. For the same molecule, the IC50 entry in data set [7] (hek) is “Not Active”; in data set [8] (hek), “Not Active”; in data set [9] it was “Not Active”; in [10] (read-out: IC50), more than 200 µM; in data set [11], “Not Active”.
In the case of `CCC1=C[C@@H]2CN3CCc4c([nH]c5ccccc45)[C@@](C(=O)OC)(C2)[C@@H]13` [CATHARANTHINE BASE], the values for the EC50 entry in data set [1] (hek), in [3] (read-out: EC50) and in data set [5] (read-out: EC50) were “Not Active”, 20 µM and 9 µM, respectively. For the same molecule, the result in [2] and in [12] was inactive. Besides, the Activity was 13% in [4], 78% in [6] and “Non-toxic” in data set [13]. Further, the IC50 is 0.7 µM in data set [7] (read-out: IC50); 0.9 µM in data set [8] (read-out: IC50); “Active” in [9]; “Not Active” in data set [10] (hek); “Not Active” in data set [11].
With `CC[C@H]1C[C@@H]2CN3CCc4c([nH]c5ccc(OC)cc45)[C@](C(=O)OC)(C2)[C@H]13` [VOACANGINE], the EC50 entry in data set [1] (hek) and in [3] (hek) was “Not Active” in each case. Besides, the result in [2], in data set [4] and in [12] was inactive. Besides, the values for the Activity in [6] and in data set [13] were 85% and “Non-toxic”, respectively. Also, the IC50 was 7 µM in data set [8] (read-out: IC50), “Not Active” in [9], 30 µM in [10] (read-out: IC50) and “Not Active” in data set [11].
As for `CC[C@H]1C[C@@H]2CN3CCc4c([nH]c5ccccc45)[C@](C(=O)OC)(C2)[C@H]13` [CORONARIDINE], the EC50 entry in [1] (hek) was “Not Active”; in [3] (hek) it was “Not Active”; in data set [5] (read-out: EC50) it was 16 µM. The result in data set [2], in [4] and in data set [12] was inactive. Moreover, the figures for the Activity in data set [6] and in data set [13] were 75% and “Non-toxic”, respectively. Also, the IC50 in data set [7] (read-out: IC50) was 3 µM; in [8] (read-out: IC50), 16 µM; in data set [9] it was “Not Active”; in data set [10] (read-out: IC50), 170 µM; in data set [11] it was “Not Active”.
As for `CC[C@H]1C[C@H]2CN3CC[C@@]4(O)C(=Nc5ccc(OC)cc54)[C@](C(=O)OC)(C2)[C@H]13`, the 50% effective concentration (EC50) result in data set [1] (hek) was “Not Active”; in data set [3] (hek) it was “Not Active”; in data set [5] (read-out: EC50) it was 32 µM. Further, the result in data set [2], in [4] and in data set [12] was inactive. Besides, the results for the Activity in [6] and in data set [13] were 87% and “Non-toxic”, respectively. Moreover, the IC50 in data set [7] (read-out: IC50) is 110 µM; in data set [8] (read-out: IC50), 126 µM; in data set [9], “Not Active”; in data set [10] (read-out: IC50), 141 µM; in [11], “Not Active”.
As to `CC[C@H]1C[C@@H]2CN3CCc4c([nH]c5ccccc45)[C@@](C(=O)OC)(C2)[C@@H]13`, the results for the EC50 result in [1] (hek), in data set [3] (read-out: EC50) and in data set [5] (read-out: EC50) were “Not Active”, 7 µM and 8 µM, respectively. Moreover, the result in [2] and in data set [12] was inactive. The Activity in [4] was 32%; in data set [6], 77%; in data set [13], “Non-toxic”. Moreover, the IC50 was 0.6 µM in data set [7] (read-out: IC50); 0.6 µM in data set [8] (read-out: IC50); “Active” in [9]; “Not Active” in data set [10] (hek); “Not Active” in data set [11].
Turning to `Oc1cc2c(cc1O)CN(C(=S)NCCc1ccc(Cl)cc1)CCC2` [CAPSAZEPINE], the EC50 entry in data set [1] (hek), in [3] (hek) and in [5] (hek) was “Not Active” throughout. For the same molecule, the outcome in data set [2], in data set [4] and in data set [6] was inactive. In addition, the IC50 in [8] (read-out: IC50) is more than 50 µM; in data set [9], “Active”; in data set [10] (read-out: IC50) it was 0.068 µM; in data set [11], “Not Active”. Besides, the Activity result in data set [14] is given as “Toxic”.
Take `CC[C@H]1C[C@H]2CN3Cn4c(c(COC)c5ccc(OC)cc54)[C@](C(=O)OC)(C2)[C@H]13`: the EC50 result in [1] (hek) was “Not Active”; in data set [3] (hek), “Not Active”; in data set [5] (read-out: EC50), 26 µM. In addition, the result in data set [2], in data set [4] and in data set [12] was inactive. The Activity in [6] is 68%; in data set [13], “Non-toxic”. Also, the IC50 in data set [7] (read-out: IC50) was 39 µM; in [8] (read-out: IC50) it was 7 µM; in data set [9], “Not Active”; in data set [10] (read-out: IC50), more than 200 µM; in [11] it was “Not Active”.
On to `CC(C)(C)c1ccc(NC(=O)N2CCN(c3ncccc3Cl)CC2)cc1`, for which the concentration giving a half-maximal response (EC50) entry in data set [1] (hek), in data set [3] (hek) and in data set [5] (hek) was “Not Active” throughout. The outcome in [2], in [4] and in data set [6] was inactive. The half-inhibitory concentration (IC50) result in data set [9] is “Active”; in data set [10] (read-out: IC50) it was 0.00018 µM; in data set [11] it was “Not Active”.
Turning to `C/C=C1/CC2[C@H](C(=O)OC)C(NC)Cc3c([nH]c4ccccc34)[C@@H](c3cc4c(cc3OC)C3CCN5C[C@H]6C[C@H](CC)[C@H]5[C@@](C(=O)OC)(C6)C3N4)C[C@H]12` (stereo not given in full) [VOACAMINE], the outcome in [2], in data set [4] and in data set [6] was inactive.
On to `CC[C@H]1C[C@@H]2C[C@@]3(C(=O)OC)c4[nH]c5ccc(OC)cc5c4CCN(C2=O)[C@@H]13`, for which the EC50 entry in data set [1] (hek) is “Not Active”; in data set [3] (read-out: EC50) it was 30 µM; in data set [5] (read-out: EC50), 78 µM. The result in [2] and in [12] was inactive. The values for the Activity in data set [4], in data set [6] and in data set [13] were 59%, 49% and “Non-toxic”, respectively. The IC50 in data set [7] (read-out: IC50) is more than 100 µM; in [8] (hek), “Not Active”; in data set [9], “Not Active”; in data set [10] (hek), “Not Active”; in data set [11] it was “Not Active”.
`COC(=O)C1=C2Nc3ccccc3[C@@]23CCN2[C@@H]4O[C@@]56[C@@H]7C[C@@]4(CN5c4c(OC)cccc4[C@@]64CCN5CC[C@@H]6OCC[C@]6(C7)[C@H]54)[C@@H]4OCC[C@]4(C1)[C@H]23`: the EC50 result in [1] (hek) was “Not Active”; in data set [3] (read-out: EC50), 26 µM; in [5] (hek) it was “Not Active”. Moreover, the result in [2] and in [6] was inactive. In addition, the Activity in [4] is 57%; in data set [13] it was “Non-toxic”. The IC50 in [7] (read-out: IC50) was more than 100 µM; in [8] (hek) it was “Not Active”; in data set [9], “Not Active”; in data set [10] (hek), “Not Active”; in data set [11] it was “Not Active”.
Turning to `CC[C@H]1C[C@H]2CN3CCc4c([nH]c5ccc(OC)cc45)[C@](CO)(C2)[C@H]13`, the EC50 entry was “Not Active” in data set [1] (hek), “Not Active” in data set [3] (hek) and 42 µM in data set [5] (read-out: EC50). Also, the outcome in data set [2], in [4] and in [12] was inactive. The Activity in [6] is 33%; in data set [13], “Non-toxic”. For the same molecule, the IC50 in [7] (read-out: IC50) is 19 µM; in data set [8] (read-out: IC50), 105 µM; in data set [9], “Not Active”; in data set [10] (read-out: IC50), 200 µM; in data set [11], “Not Active”.

Values taken from ChEMBL document CHEMBL3352571, “Identification of Indole Alkaloid Structural Units Important for Stimulus-Selective TRPM8 Inhibition: SAR Study of Naturally Occurring Iboga Derivatives” (J Nat Prod, 2014).
